Experimental data: patent US20180092866A1, “SUBSTITUTED N-([1,1'-BIPHENYL]-3-YL)-[1,1'-BIPHENYL]-3-CARBOXAMIDE ANALOGS AS INHIBITORS FOR BETA-CATENIN/B-CELL LYMPHOMA 9 INTERACTIONS” (University of Utah Research Foundation, priority 2015, published 2018)

Target: T1, β-catenin/BCL9 protein-protein interactions (Homo sapiens, UniProt P35222)
T1 construct: C-terminally His6-tagged wild-type or mutant β-catenin (residues 138-686) proteins; made in house; host or cells: E. coli BL21 DE3
T1 sequence (P35222 138-686): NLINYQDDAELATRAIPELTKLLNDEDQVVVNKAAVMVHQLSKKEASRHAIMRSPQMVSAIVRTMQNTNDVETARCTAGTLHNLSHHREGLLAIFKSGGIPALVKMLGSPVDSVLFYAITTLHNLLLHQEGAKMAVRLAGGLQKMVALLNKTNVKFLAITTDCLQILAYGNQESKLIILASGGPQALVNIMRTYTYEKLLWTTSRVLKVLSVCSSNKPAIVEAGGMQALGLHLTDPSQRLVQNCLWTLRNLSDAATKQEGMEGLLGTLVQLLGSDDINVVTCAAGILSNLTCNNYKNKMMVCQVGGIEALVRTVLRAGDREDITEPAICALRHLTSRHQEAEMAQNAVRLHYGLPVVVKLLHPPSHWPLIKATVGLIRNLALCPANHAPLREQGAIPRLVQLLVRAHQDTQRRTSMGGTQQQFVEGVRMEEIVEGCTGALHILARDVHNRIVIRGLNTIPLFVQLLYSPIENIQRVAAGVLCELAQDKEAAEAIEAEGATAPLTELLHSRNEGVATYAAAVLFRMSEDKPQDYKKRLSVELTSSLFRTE
Assay: AlphaScreen competitive inhibition assay, wild-type β-catenin/BCL9
Format: binding
Conditions: for relative inhibitory potency for β-catenin/BCL9 PPIs (in words): comparison with named compound; for Ki: wild-type β-catenin (residues 138-686)/biotinylated BCL9 26-mer, Ki derived from IC50, mean ± SD; for fold less potent than 17: relative to compound 17
Description: The purity of the wild-type and mutant β-catenin proteins was all greater than 95% as determined by the SDS-PAGE gel analysis. Both the wild-type and mutant β-catenin proteins are stable under the testing conditions. Native non-denaturing gel electrophoresis was performed to confirm the homogeneity of the purified proteins. Experiments were performed in white opaque 384-well plates from PerkinElmer, and the samples were read on a Synergy 2 plate reader (Biotek) with a sensitivity setting of 200 using AlphaScreen protocol with excitation at 680 nm and emission at 570 nm. All dilutions were made in 1×assay buffer containing 25 mM HEPES (pH=7.0), 100 mM NaCl, 0.01% Triton X-100, and 0.1% BSA. In the AlphaScreen competitive inhibition assay, 40 nM of C-terminally His6-tagged wild-type or mutant β-catenin (residues 138-686) proteins was incubated with 5 nM of N-terminal biotinylated human BCL9 26-mer (residues 350-375) for 30 min at 4° C., and then different concentrations of the tested inhibitors in the assay buffer were added to make a final volume of 20 μL. The mixture was incubated at 4° C. for 2 h. The donor and acceptor beads were added to a final concentration of 10 μg/mL in 25 μL of assay buffer. The mixture was incubated at 4° C. for 1 h. The IC50 value was determined by nonlinear least-square analysis of GraphPad Prism 5.0. […] The Ki values were derived from the IC50 values by a reported method (Nikolovska-Coleska et al. (2004) Anal. Biochem. […]: 261-273). Experiments were performed in triplicate and carried out in the presence of 1% DMSO.

Row | Compound | relative inhibitory potency for β-catenin/BCL9 PPIs (in words) (AlphaScreen assay) | Ki [µM] | other results
1 | Cl.NCCCc1ccc(C(N)=O)cc1-c1ccc(F)cc1 [Compound 6, 3-(5-Carbamoyl-4′-fluoro-[1,1′-biphenyl]-2-yl) propan-1-aminium chloride] | – | – | fold more potent than 4 (AlphaScreen assay, relative to compound 4): 5 fold
2 | Cl.NCc1ccc(C(N)=O)cc1-c1ccc(F)cc1 [Compound 7, (5-Carbamoyl-4′-fluoro-[1,1′-biphenyl]-2-yl)methanaminium chloride] | less potent than 6 | – | –
3 | NC(=O)c1ccc(CCCO)c(-c2ccc(F)cc2)c1 [Compound 8, 4′-Fluoro-6-(3-hydroxypropyl)-[1,1′-biphenyl]-3-carboxamide] | less potent than 6 | – | –
4 | Cl.NCCOc1ccc(C(=O)Nc2cccc(-c3ccc(F)cc3)c2)cc1-c1ccc(F)cc1 [Compound 9, 2-((4′-Fluoro-5-((4′-fluoro-[1,1′-biphenyl]-3-yl)carbamoyl)-[1,1′-biphenyl]-2-yl)oxy) ethanaminium chloride] | higher potency than 14 | 33.6 ± 4.34 | –
5 | NCCOc1ccc(C(=O)Nc2cccc(-c3ccc(F)c(F)c3)c2)cc1-c1ccc(F)cc1 [Compound 10, 2-((5-((3′,4′-Difluoro-[1,1′-biphenyl]-3-yl)carbamoyl)-4′-fluoro-[1,1′-biphenyl]-2-yl)oxy) ethanaminium chloride] | – | 27.7 ± 3.67 | –
6 | NCCOc1ccc(C(=O)Nc2cccc(-c3ccc(Cl)c(F)c3)c2)cc1-c1ccc(F)cc1 [Compound 11, 2-((5-((4′-Chloro-3′-fluoro-[1,1′-biphenyl]-3-yl)carbamoyl)-4′-fluoro-[1,1′-biphenyl]-2-yl)oxy) ethanaminium chloride] | – | 87.1 ± 4.95 | –
7 | NCCOc1ccc(C(=O)Nc2cccc(-c3ccc(Cl)cc3F)c2)cc1-c1ccc(F)cc1 [Compound 12, 2-((5-((4′-Chloro-2′-fluoro-[1,1′-biphenyl]-3-yl)carbamoyl)-4′-fluoro-[1,1′-biphenyl]-2-yl)oxy) ethanaminium chloride] | – | 149 ± 5.69 | –
8 | Cl.NCCOc1ccc(C(=O)Nc2cccc(-c3ccc(F)cc3)c2)cc1-c1ccc(F)c(F)c1 [Compound 13, 2-((3′,4′-Difluoro-5-((4′-fluoro-[1,1′-biphenyl]-3-yl)carbamoyl)-[1,1′-biphenyl]-2-yl)oxy) ethanaminium chloride] | higher potency than 14 | 29.3 ± 3.85 | –
9 | NCCOc1ccc(C(=O)Nc2cccc(-c3ccc(F)cc3)c2)cc1-c1ccc(Cl)c(F)c1 [Compound 14, 2-((4′-Chloro-3′-fluoro-5-((4′-fluoro-[1,1′-biphenyl]-3-yl)carbamoyl)-[1,1′-biphenyl]-2-yl)oxy) ethanaminium chloride] | – | 74 ± 3.48 | –
10 | NCCOc1ccc(C(=O)Nc2cccc(-c3ccc(F)cc3)c2)cc1-c1ccsc1 [Compound 15, 2-(4-((4′-Fluoro-[1,1′-biphenyl]-3-yl)carbamoyl)-2-(thiophen-3-yl)phenoxy) ethanaminium chloride] | – | 32.4 ± 4.24 | –
11 | Cl.Cl.NCCOc1ccc(NC(=O)c2ccc(OCCN)c(-c3ccc(F)c(F)c3)c2)cc1-c1ccc(F)cc1 [Compound 17, 2-((5-(6-(2-Ammonioethoxy)-3′,4′-difluoro-[1,1′-biphenyl]-3-ylcarboxamido)-4′-fluoro-[1,1′-biphenyl]-2-yl)oxy) ethanaminium chloride] | more potent than 9 and 13 | 6.12 ± 1.53 | –
12 | O=C(Nc1ccc(OCCO)c(-c2ccc(F)cc2)c1)c1ccc(OCCO)c(-c2ccc(F)c(F)c2)c1 [Compound 18, 3′,4′-Difluoro-N-(4′-fluoro-6-(2-hydroxyethoxy)-[1,1′-biphenyl]-3-yl)-6-(2-hydroxyethoxy)-[1,1′-biphenyl]-3-carboxamide] | – | 36.8 ± 2.72 | fold less potent than 17 (AlphaScreen assay): 6 fold
13 | Cc1ccc(NC(=O)c2ccc(C)c(-c3ccc(F)c(F)c3)c2)cc1-c1ccc(F)cc1 [Compound 19, 3′,4′-Difluoro-N-(4′-fluoro-6-methyl-[1,1′-biphenyl]-3-yl)-6-methyl-[1,1′-biphenyl]-3-carboxamide] | – | – | fold less potent than 17 (AlphaScreen assay): 65 fold
